These compounds were tested against Epidermal growth factor receptor (Homo sapiens, UniProt P00533) (assay: not given). Conditions: not given.
Format: ADME

Chain of Epidermal growth factor receptor (Homo sapiens, UniProt P00533) (P00533 whole entry): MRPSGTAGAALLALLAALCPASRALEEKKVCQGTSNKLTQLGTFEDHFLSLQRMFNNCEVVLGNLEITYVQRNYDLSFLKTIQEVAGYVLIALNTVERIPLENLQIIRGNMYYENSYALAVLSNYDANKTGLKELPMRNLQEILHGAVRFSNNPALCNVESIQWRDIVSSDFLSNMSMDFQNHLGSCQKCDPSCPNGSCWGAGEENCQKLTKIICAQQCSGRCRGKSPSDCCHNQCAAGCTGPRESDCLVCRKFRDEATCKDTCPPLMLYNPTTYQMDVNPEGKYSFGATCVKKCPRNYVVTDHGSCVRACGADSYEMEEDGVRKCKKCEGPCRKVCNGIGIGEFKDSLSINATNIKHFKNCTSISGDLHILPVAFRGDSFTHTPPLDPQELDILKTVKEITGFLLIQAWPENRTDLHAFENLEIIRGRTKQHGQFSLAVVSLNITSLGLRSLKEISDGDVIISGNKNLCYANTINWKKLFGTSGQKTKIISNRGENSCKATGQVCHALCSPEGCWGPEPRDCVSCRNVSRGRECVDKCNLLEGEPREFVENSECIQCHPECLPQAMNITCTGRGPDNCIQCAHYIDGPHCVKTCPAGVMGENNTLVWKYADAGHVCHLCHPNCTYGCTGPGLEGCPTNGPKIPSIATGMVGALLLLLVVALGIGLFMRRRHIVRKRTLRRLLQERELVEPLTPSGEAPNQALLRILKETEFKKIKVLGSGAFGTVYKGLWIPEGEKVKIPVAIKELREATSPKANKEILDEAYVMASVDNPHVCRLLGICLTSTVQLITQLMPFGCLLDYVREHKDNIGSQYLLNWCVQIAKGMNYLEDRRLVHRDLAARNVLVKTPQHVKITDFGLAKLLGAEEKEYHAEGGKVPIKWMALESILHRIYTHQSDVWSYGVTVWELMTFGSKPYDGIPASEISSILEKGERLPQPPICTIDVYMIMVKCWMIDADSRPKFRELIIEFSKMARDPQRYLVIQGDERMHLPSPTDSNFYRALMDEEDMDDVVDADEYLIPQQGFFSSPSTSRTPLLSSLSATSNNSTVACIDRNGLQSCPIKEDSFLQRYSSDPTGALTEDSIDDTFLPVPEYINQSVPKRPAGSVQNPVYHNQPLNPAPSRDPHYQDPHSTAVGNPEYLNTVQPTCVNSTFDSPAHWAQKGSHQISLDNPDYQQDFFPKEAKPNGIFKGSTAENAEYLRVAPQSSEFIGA

Structure (SMILES)	IC50
NCCSc1nc(-c2ccc(F)cc2)c(-c2ccnc(Nc3ccccc3)c2)[nH]1	4.8 nM
CSc1nc(-c2ccc(F)cc2)c(-c2ccnc(Nc3ccccc3)c2)[nH]1	24 nM
Fc1ccc(-c2nc(SCCN3CCOCC3)[nH]c2-c2ccnc(Nc3ccccc3)c2)cc1	183 nM
CSc1nc(-c2ccc(F)cc2)c(-c2ccnc(Nc3cc(F)cc([N+](=O)[O-])c3)c2)[nH]1	265 nM
C=CC(=O)Nc1ccc(OC)c(Nc2cc(-c3[nH]c(SC)nc3C3CC3)ccn2)c1	2.3 nM
C=CC(=O)NCCSc1nc(-c2ccc(F)c(C(F)(F)F)c2)c(-c2ccnc(Nc3ccccc3)c2)[nH]1	45 nM
C=CC(=O)Nc1cccc(Nc2cc(-c3[nH]c(SC)nc3-c3ccc(F)cc3)ccn2)n1	< 1 nM
C=CC(=O)NCc1cccc(Nc2cc(-c3[nH]c(SC)nc3-c3ccc(F)cc3)ccn2)c1	16 nM
C=CC(=O)NCc1cn(Cc2cccc(Nc3cc(-c4[nH]c(SC)nc4-c4ccc(F)cc4)ccn3)c2)nn1	164 nM
C=CC(=O)Nc1ccc(OC)c(Nc2cc(-c3[nH]c(SC)nc3C(C)(C)C)ccn2)c1	57 nM
C=CC(=O)Nc1ccc(OC)c(Nc2cc(-c3[nH]c(SC)nc3-c3ccc4ccccc4c3)ccn2)c1	< 1 nM

Each compound was assayed against Epidermal growth factor receptor (Homo sapiens, UniProt P00533, L858R) (assay: not given). Conditions: not given.
Chain of Epidermal growth factor receptor (Homo sapiens, UniProt P00533, L858R) (P00533 25-1210 L858R limits assumed): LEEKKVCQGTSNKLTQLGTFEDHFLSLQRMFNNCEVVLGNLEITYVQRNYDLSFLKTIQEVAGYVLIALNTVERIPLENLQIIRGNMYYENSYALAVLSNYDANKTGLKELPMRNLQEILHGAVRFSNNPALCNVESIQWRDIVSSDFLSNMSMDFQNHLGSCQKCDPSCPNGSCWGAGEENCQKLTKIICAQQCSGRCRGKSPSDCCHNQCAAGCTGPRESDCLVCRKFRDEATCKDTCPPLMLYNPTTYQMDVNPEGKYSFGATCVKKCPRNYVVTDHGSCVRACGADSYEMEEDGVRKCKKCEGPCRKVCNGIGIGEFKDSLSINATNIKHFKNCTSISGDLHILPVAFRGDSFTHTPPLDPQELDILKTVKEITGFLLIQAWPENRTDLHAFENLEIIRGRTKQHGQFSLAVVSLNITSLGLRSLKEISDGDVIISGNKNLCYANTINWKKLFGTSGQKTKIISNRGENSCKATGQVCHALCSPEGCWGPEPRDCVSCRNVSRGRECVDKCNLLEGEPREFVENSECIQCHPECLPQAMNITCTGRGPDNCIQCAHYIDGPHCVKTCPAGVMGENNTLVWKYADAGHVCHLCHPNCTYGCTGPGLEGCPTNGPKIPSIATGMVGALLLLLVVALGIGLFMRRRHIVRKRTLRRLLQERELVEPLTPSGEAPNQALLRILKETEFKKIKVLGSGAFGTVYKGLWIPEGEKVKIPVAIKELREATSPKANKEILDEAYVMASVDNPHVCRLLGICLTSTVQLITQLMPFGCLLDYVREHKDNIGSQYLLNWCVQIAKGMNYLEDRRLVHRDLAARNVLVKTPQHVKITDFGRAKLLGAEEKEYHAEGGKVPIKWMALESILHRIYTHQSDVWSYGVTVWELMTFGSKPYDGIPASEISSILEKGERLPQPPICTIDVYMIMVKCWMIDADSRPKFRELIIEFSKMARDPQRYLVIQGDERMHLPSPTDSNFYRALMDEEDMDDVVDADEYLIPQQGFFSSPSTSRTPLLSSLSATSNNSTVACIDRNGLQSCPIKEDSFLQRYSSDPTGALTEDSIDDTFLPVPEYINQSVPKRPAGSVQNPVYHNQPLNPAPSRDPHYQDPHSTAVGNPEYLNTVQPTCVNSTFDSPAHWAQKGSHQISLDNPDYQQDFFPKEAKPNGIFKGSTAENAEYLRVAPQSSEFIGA

Structure (SMILES)	IC50
NCCSc1nc(-c2ccc(F)cc2)c(-c2ccnc(Nc3ccccc3)c2)[nH]1	2.6 nM
CSc1nc(-c2ccc(F)cc2)c(-c2ccnc(Nc3ccccc3)c2)[nH]1	2.5 nM
Fc1ccc(-c2nc(SCCN3CCOCC3)[nH]c2-c2ccnc(Nc3ccccc3)c2)cc1	75 nM
CSc1nc(-c2ccc(F)cc2)c(-c2ccnc(Nc3cc(F)cc([N+](=O)[O-])c3)c2)[nH]1	55 nM
C=CC(=O)Nc1ccc(OC)c(Nc2cc(-c3[nH]c(SC)nc3C3CC3)ccn2)c1	< 1 nM
C=CC(=O)NCCSc1nc(-c2ccc(F)c(C(F)(F)F)c2)c(-c2ccnc(Nc3ccccc3)c2)[nH]1	144 nM
C=CC(=O)Nc1cccc(Nc2cc(-c3[nH]c(SC)nc3-c3ccc(F)cc3)ccn2)n1	< 1 nM
C=CC(=O)NCc1cccc(Nc2cc(-c3[nH]c(SC)nc3-c3ccc(F)cc3)ccn2)c1	4.9 nM
C=CC(=O)NCc1cn(Cc2cccc(Nc3cc(-c4[nH]c(SC)nc4-c4ccc(F)cc4)ccn3)c2)nn1	46 nM
C=CC(=O)Nc1ccc(OC)c(Nc2cc(-c3[nH]c(SC)nc3C(C)(C)C)ccn2)c1	16 nM
C=CC(=O)Nc1ccc(OC)c(Nc2cc(-c3[nH]c(SC)nc3-c3ccc4ccccc4c3)ccn2)c1	< 1 nM

What follows are compounds tested on A-431 (assay: cells). Conditions: Homo sapiens, A-431, 96 h.
Format: ADME, cell-based
Description: Antiproliferative activity against human A431 cells harboring wild type EGFR assessed as growth inhibition after 96 hrs by CellTiter-Glo assay

Structure (SMILES)	EC50
NCCSc1nc(-c2ccc(F)cc2)c(-c2ccnc(Nc3ccccc3)c2)[nH]1	11000 nM
CSc1nc(-c2ccc(F)cc2)c(-c2ccnc(Nc3ccccc3)c2)[nH]1	11000 nM
Fc1ccc(-c2nc(SCCN3CCOCC3)[nH]c2-c2ccnc(Nc3ccccc3)c2)cc1	10000 nM
CSc1nc(-c2ccc(F)cc2)c(-c2ccnc(Nc3cc(F)cc([N+](=O)[O-])c3)c2)[nH]1	19000 nM
C=CC(=O)Nc1ccc(OC)c(Nc2cc(-c3[nH]c(SC)nc3C3CC3)ccn2)c1	8000 nM
C=CC(=O)NCCSc1nc(-c2ccc(F)c(C(F)(F)F)c2)c(-c2ccnc(Nc3ccccc3)c2)[nH]1	11000 nM
C=CC(=O)Nc1cccc(Nc2cc(-c3[nH]c(SC)nc3-c3ccc(F)cc3)ccn2)n1	1700 nM
C=CC(=O)NCc1cccc(Nc2cc(-c3[nH]c(SC)nc3-c3ccc(F)cc3)ccn2)c1	14000 nM
C=CC(=O)NCc1cn(Cc2cccc(Nc3cc(-c4[nH]c(SC)nc4-c4ccc(F)cc4)ccn3)c2)nn1	24000 nM
C=CC(=O)Nc1ccc(OC)c(Nc2cc(-c3[nH]c(SC)nc3C(C)(C)C)ccn2)c1	20000 nM
C=CC(=O)Nc1ccc(OC)c(Nc2cc(-c3[nH]c(SC)nc3-c3ccc4ccccc4c3)ccn2)c1	3000 nM

What follows are compounds tested against Epidermal growth factor receptor (Homo sapiens, UniProt P00533, L858R/T790M) (assay: not given). Conditions: not given.
Chain of Epidermal growth factor receptor (Homo sapiens, UniProt P00533, L858R/T790M) (P00533 25-1210 T790M/L858R limits assumed): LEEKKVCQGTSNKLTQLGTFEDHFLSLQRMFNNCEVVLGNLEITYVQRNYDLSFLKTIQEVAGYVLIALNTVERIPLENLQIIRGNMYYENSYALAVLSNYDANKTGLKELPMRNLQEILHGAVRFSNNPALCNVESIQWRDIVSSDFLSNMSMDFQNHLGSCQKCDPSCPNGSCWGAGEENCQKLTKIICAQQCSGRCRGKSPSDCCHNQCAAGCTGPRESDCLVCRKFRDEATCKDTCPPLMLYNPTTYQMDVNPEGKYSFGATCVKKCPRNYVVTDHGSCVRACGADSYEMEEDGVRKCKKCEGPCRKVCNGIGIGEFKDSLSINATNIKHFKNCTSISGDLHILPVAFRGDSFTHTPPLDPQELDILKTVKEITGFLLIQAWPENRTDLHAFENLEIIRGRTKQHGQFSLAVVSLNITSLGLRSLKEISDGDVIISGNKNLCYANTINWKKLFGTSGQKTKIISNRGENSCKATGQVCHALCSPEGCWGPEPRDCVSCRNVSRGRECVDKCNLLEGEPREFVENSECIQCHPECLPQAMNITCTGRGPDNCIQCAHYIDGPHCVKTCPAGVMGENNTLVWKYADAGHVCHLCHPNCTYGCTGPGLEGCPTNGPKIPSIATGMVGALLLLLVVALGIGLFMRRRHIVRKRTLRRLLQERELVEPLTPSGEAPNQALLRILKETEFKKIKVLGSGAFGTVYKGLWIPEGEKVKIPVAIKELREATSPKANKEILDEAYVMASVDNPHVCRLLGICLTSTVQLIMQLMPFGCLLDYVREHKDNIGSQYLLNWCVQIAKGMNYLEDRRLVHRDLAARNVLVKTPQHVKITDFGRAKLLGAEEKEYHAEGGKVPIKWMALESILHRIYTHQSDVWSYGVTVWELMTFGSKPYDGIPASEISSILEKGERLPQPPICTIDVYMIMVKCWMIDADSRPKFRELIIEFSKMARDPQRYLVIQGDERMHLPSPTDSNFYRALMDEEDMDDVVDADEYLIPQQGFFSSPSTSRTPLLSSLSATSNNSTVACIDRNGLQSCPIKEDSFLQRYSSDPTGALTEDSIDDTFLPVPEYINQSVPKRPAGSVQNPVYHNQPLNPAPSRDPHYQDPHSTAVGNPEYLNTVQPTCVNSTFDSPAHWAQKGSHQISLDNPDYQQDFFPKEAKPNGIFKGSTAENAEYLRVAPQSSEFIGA

Structure (SMILES)	IC50
NCCSc1nc(-c2ccc(F)cc2)c(-c2ccnc(Nc3ccccc3)c2)[nH]1	29 nM
CSc1nc(-c2ccc(F)cc2)c(-c2ccnc(Nc3ccccc3)c2)[nH]1	130 nM
Fc1ccc(-c2nc(SCCN3CCOCC3)[nH]c2-c2ccnc(Nc3ccccc3)c2)cc1	1250 nM
CSc1nc(-c2ccc(F)cc2)c(-c2ccnc(Nc3cc(F)cc([N+](=O)[O-])c3)c2)[nH]1	586 nM
C=CC(=O)Nc1ccc(OC)c(Nc2cc(-c3[nH]c(SC)nc3C3CC3)ccn2)c1	7.4 nM
C=CC(=O)NCCSc1nc(-c2ccc(F)c(C(F)(F)F)c2)c(-c2ccnc(Nc3ccccc3)c2)[nH]1	646 nM
C=CC(=O)Nc1cccc(Nc2cc(-c3[nH]c(SC)nc3-c3ccc(F)cc3)ccn2)n1	3.1 nM
C=CC(=O)NCc1cccc(Nc2cc(-c3[nH]c(SC)nc3-c3ccc(F)cc3)ccn2)c1	89 nM
C=CC(=O)NCc1cn(Cc2cccc(Nc3cc(-c4[nH]c(SC)nc4-c4ccc(F)cc4)ccn3)c2)nn1	597 nM
C=CC(=O)Nc1ccc(OC)c(Nc2cc(-c3[nH]c(SC)nc3C(C)(C)C)ccn2)c1	485 nM
C=CC(=O)Nc1ccc(OC)c(Nc2cc(-c3[nH]c(SC)nc3-c3ccc4ccccc4c3)ccn2)c1	1.1 nM

The compounds below were run on NCI-H1975 (assay: cells). Conditions: Homo sapiens, NCI-H1975, 96 h.
Format: functional, cell-based

Structure (SMILES)	EC50
NCCSc1nc(-c2ccc(F)cc2)c(-c2ccnc(Nc3ccccc3)c2)[nH]1	7200 nM
CSc1nc(-c2ccc(F)cc2)c(-c2ccnc(Nc3ccccc3)c2)[nH]1	22000 nM
Fc1ccc(-c2nc(SCCN3CCOCC3)[nH]c2-c2ccnc(Nc3ccccc3)c2)cc1	15000 nM
CSc1nc(-c2ccc(F)cc2)c(-c2ccnc(Nc3cc(F)cc([N+](=O)[O-])c3)c2)[nH]1	30000 nM
C=CC(=O)Nc1ccc(OC)c(Nc2cc(-c3[nH]c(SC)nc3C3CC3)ccn2)c1	2300 nM
C=CC(=O)NCCSc1nc(-c2ccc(F)c(C(F)(F)F)c2)c(-c2ccnc(Nc3ccccc3)c2)[nH]1	3100 nM
C=CC(=O)Nc1cccc(Nc2cc(-c3[nH]c(SC)nc3-c3ccc(F)cc3)ccn2)n1	1500 nM
C=CC(=O)NCc1cccc(Nc2cc(-c3[nH]c(SC)nc3-c3ccc(F)cc3)ccn2)c1	3400 nM
C=CC(=O)NCc1cn(Cc2cccc(Nc3cc(-c4[nH]c(SC)nc4-c4ccc(F)cc4)ccn3)c2)nn1	23000 nM
C=CC(=O)Nc1ccc(OC)c(Nc2cc(-c3[nH]c(SC)nc3C(C)(C)C)ccn2)c1	18000 nM
C=CC(=O)Nc1ccc(OC)c(Nc2cc(-c3[nH]c(SC)nc3-c3ccc4ccccc4c3)ccn2)c1	380 nM

From ChEMBL document CHEMBL4011631, “Trisubstituted Pyridinylimidazoles as Potent Inhibitors of the Clinically Resistant L858R/T790M/C797S EGFR Mutant: Targeting of Both Hydrophobic Regions and the Phosphate Binding Site” (J Med Chem, 2017)
